Measured values taken from ChEMBL document CHEMBL5236603, “Discovery of mobocertinib, a potent, oral inhibitor of EGFR exon 20 insertion mutations in non-small cell lung cancer” (Bioorg Med Chem Lett, 2023).
pIC50: −log10 of the molar value.

Tests used:
[1] = Inhibition of mouse EGFR del-T790M mutant stably expressed in mouse BaF3 cells assessed as cell viability incubated for 3 days by Cell Titer-Glo assay; format: cell-based; settings: BaF3, 72 h
[2] = target: T1, Tyrosine-protein kinase TXK (Homo sapiens) (UniProt P42681); assay: Inhibition of human TXK at 1 uM by hotspot assay relative to control
T1 sequence (whole entry): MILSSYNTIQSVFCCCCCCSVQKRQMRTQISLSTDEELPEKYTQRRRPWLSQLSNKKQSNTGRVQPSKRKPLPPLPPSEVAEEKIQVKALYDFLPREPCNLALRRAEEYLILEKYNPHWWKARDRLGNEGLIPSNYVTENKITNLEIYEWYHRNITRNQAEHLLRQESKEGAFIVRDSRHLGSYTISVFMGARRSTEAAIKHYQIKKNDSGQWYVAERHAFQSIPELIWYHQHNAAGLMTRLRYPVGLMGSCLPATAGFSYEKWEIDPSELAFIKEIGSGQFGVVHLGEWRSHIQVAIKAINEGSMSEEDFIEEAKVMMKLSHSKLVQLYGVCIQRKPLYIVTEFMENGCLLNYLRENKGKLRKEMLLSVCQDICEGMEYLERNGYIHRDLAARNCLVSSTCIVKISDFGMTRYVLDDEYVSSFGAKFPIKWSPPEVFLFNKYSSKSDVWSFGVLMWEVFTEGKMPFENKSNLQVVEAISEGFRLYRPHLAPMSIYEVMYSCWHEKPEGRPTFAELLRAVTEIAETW

[3] = target: T2, Tyrosine-protein kinase JAK3 (Homo sapiens) (UniProt P52333); assay: Inhibition of human JAK3 at 1 uM by hotspot assay relative to control
T2 sequence (whole entry): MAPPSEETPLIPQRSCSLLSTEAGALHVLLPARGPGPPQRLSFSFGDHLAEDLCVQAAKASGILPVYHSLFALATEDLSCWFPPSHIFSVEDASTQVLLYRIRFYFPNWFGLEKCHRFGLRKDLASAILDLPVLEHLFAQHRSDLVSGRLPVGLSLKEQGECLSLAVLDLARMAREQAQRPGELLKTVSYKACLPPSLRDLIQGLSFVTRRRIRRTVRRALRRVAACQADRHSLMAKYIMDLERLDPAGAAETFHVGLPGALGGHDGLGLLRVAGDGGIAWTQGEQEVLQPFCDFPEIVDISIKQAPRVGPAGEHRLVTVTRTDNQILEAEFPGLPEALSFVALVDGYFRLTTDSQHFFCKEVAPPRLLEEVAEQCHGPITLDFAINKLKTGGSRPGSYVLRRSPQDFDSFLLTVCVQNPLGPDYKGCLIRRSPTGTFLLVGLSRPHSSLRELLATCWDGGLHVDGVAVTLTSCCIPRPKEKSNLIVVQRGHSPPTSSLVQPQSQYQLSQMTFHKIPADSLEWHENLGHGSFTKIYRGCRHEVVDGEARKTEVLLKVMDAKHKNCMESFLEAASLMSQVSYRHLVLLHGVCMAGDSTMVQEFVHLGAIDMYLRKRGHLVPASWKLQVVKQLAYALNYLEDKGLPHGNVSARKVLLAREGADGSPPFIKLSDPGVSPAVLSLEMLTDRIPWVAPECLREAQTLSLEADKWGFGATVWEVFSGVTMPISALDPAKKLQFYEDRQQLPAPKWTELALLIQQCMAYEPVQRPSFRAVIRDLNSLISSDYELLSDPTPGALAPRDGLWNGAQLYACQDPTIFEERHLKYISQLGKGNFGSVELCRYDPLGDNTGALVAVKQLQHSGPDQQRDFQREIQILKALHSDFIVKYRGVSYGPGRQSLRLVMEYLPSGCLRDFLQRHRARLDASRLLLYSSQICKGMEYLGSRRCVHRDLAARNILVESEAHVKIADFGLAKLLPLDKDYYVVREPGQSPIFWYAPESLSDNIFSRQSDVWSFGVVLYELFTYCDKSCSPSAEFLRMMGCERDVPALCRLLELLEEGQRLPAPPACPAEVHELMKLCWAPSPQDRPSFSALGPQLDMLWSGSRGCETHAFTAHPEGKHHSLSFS

[4] = Inhibition of mouse EGFR V769_D770insASV mutant stably expressed in mouse BaF3 cells assessed as cell viability incubated for 3 days by Cell Titer-Glo assay; format: cell-based; settings: BaF3, 72 h
[5] = test system: BaF3; assay: In vivo antitumor activity against mouse BaF3 cells expressing EGFR exon 20 insertion (ex20ins) ASV implanted in SCID mouse assessed as tumor regression at 100 mg/kg, po administered for 7 consecutive days; format: functional; settings: time 7 day
[6] = test system: BaF3; assay: Anticancer activity against parental mouse BaF3 cells assessed as cell viability incubated for 3 days by Cell Titer-Glo assay; format: functional, cell-based; settings: BaF3, 72 h
[7] = Inhibition of mouse EGFR L858R-T790M mutant stably expressed in mouse BaF3 cells assessed as cell viability incubated for 3 days by Cell Titer-Glo assay; format: cell-based; settings: BaF3, 72 h
[8] = target: Receptor tyrosine-protein kinase erbB-2 (Homo sapiens) (UniProt P04626); assay: Inhibition of human HER2 at 1 uM by hotspot assay relative to control
Chain of Receptor tyrosine-protein kinase erbB-2 (Homo sapiens) (P04626 whole entry): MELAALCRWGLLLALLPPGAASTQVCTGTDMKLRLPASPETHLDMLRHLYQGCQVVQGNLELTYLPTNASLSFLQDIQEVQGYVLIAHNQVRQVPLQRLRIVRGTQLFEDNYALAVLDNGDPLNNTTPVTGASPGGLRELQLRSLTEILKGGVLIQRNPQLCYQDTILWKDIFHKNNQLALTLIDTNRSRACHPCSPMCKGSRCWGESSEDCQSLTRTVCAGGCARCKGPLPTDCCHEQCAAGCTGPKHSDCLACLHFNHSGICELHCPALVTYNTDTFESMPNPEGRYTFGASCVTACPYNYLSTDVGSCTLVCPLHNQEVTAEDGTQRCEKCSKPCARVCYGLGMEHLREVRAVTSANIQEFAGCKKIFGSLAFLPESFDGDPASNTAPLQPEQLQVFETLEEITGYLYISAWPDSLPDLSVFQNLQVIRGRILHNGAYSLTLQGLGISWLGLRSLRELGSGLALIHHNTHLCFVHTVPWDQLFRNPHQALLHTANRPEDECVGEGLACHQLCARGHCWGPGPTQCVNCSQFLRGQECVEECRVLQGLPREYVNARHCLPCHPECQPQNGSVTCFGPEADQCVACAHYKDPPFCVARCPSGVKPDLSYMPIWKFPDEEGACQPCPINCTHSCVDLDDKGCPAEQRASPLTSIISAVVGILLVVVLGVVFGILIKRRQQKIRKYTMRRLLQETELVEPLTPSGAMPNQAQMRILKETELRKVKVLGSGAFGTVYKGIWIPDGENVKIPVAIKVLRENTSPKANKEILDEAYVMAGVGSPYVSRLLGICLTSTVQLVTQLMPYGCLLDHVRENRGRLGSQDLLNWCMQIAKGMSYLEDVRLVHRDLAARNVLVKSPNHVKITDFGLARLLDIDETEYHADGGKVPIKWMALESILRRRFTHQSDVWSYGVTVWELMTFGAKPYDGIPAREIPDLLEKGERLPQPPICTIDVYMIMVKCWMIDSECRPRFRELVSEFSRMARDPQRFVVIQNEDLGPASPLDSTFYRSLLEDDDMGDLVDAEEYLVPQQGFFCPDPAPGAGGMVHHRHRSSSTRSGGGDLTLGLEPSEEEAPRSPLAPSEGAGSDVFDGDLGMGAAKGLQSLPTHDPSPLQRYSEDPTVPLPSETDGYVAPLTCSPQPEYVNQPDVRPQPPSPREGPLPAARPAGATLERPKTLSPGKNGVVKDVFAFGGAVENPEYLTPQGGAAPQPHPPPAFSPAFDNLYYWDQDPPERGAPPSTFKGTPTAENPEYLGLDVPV

[9] = target: T3, Epidermal growth factor receptor (Homo sapiens, UniProt P00533); assay: Inhibition of […]-induced EGFR phosphorylation in human A549 cells pretreated for 2 hrs followed by EGF stimulation by immune assay; format: cell-based
T3 sequence (P00533 whole entry): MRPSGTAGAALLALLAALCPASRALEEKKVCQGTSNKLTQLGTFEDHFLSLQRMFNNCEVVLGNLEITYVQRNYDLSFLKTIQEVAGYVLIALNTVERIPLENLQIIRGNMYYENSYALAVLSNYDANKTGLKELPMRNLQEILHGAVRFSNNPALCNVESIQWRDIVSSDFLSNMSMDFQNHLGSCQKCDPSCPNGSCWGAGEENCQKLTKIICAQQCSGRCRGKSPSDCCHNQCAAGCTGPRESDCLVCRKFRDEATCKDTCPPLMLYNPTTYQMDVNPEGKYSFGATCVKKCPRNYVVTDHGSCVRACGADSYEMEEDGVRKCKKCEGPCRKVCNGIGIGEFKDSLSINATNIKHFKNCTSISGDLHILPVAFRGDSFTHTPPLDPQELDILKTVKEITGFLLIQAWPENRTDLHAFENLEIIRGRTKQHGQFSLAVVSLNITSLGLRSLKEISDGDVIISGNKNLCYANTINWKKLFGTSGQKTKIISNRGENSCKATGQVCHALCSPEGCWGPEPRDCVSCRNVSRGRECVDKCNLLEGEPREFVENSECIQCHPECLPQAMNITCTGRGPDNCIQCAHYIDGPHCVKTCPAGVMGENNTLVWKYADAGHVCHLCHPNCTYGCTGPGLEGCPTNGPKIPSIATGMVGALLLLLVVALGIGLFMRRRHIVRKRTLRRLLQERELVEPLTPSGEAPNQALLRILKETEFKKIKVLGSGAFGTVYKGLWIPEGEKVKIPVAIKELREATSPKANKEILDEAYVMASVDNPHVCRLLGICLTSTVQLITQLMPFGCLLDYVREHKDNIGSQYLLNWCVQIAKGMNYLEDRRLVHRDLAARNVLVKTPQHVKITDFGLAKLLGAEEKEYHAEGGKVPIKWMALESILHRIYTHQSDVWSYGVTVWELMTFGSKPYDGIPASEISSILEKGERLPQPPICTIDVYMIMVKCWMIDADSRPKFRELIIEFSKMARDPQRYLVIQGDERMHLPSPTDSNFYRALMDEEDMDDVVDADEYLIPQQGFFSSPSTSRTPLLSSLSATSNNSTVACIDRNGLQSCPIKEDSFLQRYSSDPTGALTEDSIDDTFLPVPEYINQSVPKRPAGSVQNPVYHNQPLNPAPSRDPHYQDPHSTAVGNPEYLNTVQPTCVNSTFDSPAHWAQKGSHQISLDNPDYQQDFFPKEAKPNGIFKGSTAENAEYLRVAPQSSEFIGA

[10] = target: T3, Epidermal growth factor receptor; assay: Inhibition of human EGFR at 1 uM by hotspot assay relative to control
[11] = AUClast in CD-1 mouse at 10 mg/kg, po by LC/MS/MS analysis; format: ADME, organism-based; parameters: dose 10 mg/kg, route po; settings: in vivo
[12] = Inhibition of mouse EGFR S768_D770dup D770_N771insSVD (SVD) mutant stably expressed in mouse BaF3 cells assessed as cell viability incubated for 3 days by Cell Titer-Glo assay; format: cell-based; settings: BaF3, 72 h
[13] = Inhibition of mouse EGFR A767_V769dup V769_D770insASV (ASV) mutant stably expressed in mouse BaF3 cells assessed as cell viability incubated for 3 days by Cell Titer-Glo assay; format: cell-based; settings: BaF3, 72 h
[14] = test system: BaF3; assay: In vivo antitumor activity against mouse BaF3 cells expressing EGFR exon 20 insertion (ex20ins) ASV implanted in SCID mouse assessed as tumor growth inhibition at 100 mg/kg, po administered for 7 consecutive days; format: functional; settings: BaF3, 168 h, time 7 day, read-out: TGI
[15] = target: Tyrosine-protein kinase BTK (Homo sapiens) (UniProt Q06187); assay: Inhibition of human BTK at 1 uM by hotspot assay relative to control
Chain of Tyrosine-protein kinase BTK (Homo sapiens) (Q06187 whole entry): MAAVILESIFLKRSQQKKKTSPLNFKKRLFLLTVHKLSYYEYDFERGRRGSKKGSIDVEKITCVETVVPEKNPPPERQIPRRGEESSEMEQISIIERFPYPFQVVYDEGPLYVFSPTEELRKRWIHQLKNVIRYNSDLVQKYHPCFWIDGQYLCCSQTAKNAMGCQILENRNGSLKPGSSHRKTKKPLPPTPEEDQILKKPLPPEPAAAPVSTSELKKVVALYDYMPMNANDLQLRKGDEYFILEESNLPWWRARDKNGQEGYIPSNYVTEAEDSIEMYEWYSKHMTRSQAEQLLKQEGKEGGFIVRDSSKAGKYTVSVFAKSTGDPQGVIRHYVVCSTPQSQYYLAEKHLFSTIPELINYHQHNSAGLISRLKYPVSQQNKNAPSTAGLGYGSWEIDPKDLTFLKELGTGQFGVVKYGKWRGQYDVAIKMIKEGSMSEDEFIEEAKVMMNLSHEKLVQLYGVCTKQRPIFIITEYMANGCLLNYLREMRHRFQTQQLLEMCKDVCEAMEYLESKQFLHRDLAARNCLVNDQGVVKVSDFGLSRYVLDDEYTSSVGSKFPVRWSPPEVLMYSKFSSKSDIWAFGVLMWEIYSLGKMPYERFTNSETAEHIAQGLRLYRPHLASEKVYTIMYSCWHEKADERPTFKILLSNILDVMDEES

[16] = Cmax in CD-1 rat at 10 mg/kg, po by LC/MS/MS analysis; format: ADME, organism-based; parameters: dose 10 mg/kg, route po; settings: in vivo
[17] = target: Receptor tyrosine-protein kinase erbB-4 (Homo sapiens) (UniProt Q15303); assay: Inhibition of human HER4 at 1 uM by hotspot assay relative to control
Chain of Receptor tyrosine-protein kinase erbB-4 (Homo sapiens) (Q15303 whole entry): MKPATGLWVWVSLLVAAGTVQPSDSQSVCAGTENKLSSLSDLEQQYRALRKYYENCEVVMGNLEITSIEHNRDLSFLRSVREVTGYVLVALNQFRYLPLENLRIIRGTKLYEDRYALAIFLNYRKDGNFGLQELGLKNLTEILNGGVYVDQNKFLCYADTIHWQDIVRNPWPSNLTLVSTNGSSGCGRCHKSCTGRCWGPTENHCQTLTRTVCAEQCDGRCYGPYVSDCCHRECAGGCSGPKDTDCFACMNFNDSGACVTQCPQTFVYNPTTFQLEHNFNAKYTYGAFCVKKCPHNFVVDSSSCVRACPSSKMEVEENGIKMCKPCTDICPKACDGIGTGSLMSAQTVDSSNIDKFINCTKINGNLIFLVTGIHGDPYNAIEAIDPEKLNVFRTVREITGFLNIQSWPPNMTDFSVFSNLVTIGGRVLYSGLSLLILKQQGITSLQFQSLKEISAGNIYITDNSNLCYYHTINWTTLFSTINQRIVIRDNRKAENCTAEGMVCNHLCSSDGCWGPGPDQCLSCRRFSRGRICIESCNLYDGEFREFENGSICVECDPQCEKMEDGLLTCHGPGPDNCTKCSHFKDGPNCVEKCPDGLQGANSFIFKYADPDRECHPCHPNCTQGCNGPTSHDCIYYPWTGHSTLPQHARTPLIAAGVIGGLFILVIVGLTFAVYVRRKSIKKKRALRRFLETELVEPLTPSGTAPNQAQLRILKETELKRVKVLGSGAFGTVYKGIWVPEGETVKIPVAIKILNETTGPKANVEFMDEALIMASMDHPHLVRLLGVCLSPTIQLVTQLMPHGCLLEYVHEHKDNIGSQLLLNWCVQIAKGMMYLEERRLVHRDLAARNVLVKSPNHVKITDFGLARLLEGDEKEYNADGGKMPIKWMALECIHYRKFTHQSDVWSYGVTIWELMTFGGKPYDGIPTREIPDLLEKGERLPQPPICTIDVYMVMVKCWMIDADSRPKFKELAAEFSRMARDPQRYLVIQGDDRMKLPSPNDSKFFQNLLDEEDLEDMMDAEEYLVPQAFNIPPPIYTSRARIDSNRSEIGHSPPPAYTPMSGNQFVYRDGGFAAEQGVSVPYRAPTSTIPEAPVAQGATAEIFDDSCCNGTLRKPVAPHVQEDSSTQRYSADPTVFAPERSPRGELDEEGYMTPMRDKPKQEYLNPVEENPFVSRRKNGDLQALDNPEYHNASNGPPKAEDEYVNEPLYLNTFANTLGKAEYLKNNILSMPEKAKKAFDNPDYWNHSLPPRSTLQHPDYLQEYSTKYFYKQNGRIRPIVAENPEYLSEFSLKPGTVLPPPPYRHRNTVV

[18] = target: Tyrosine-protein kinase Blk (Homo sapiens) (UniProt P51451); assay: Inhibition of human BLK at 1 uM by hotspot assay relative to control
Chain of Tyrosine-protein kinase Blk (Homo sapiens) (P51451 2-505 limits assumed): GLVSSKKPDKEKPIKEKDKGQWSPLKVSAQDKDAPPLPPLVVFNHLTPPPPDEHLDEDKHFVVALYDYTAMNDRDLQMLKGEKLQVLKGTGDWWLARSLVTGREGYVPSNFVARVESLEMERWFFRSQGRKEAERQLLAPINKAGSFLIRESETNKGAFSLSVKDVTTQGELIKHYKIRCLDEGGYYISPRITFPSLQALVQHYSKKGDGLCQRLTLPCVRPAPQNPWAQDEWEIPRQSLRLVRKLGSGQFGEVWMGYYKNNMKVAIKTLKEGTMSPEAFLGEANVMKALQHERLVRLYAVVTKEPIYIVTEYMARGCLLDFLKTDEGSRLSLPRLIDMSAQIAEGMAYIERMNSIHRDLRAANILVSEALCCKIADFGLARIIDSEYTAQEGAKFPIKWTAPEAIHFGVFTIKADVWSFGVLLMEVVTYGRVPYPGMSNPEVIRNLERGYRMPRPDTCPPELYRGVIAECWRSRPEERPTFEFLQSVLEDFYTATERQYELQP

inhibition [2]: > 81%
inhibition [3]: > 81%
inhibition [8]: > 97%
pIC50 [9]: 7.51
inhibition [10]: > 97%
AUC(0-t) [11]: 341 ng·h/mL
inhibition [15]: > 81%
Cmax [16]: 143 ng/mL
inhibition [17]: > 97%
inhibition [18]: > 81%
Compound: C=CC(=O)Nc1cc(Nc2ncc(C(=O)OC(C)C)c(-c3cn(C)c4ccccc34)n2)c(OC)cc1N(C)CCN(C)C [MOBOCERTINIB]
pIC50 [1]: 8.20
pIC50 [4]: 7.96
Activity [5]: -98%
pIC50 [6]: 5.40
pIC50 [7]: 7.67
pIC50 [12]: 7.65
pIC50 [13]: 7.96
inhibition in vivo at 100 mg/kg [14]: 89%
